Earlier results as cited in patent US9579288B2, “Tesofensine and beta blocker combination formulations” (Saniona A/S, priority 2015, dated 2017).

What was measured:
[1] = obese patients, long-term treatment, corrected for placebo and diet effects
DIO rats = settings: rat model of diet-induced obesity (DIO)

CCOC[C@@H]1[C@@H](c2ccc(Cl)c(Cl)c2)C[C@@H]2CC[C@H]1N2C [Tesofensine, (1R,2R,3S,5S)-3-(3,4-dichlorophenyl)-2-(ethoxymethyl)-8-methyl-8-azabicyclo[3.2.1]octane]
weight loss [1]: about 10%
body weight (DIO rats): robust and sustained weight loss
